Data set [1] deals with T1, P2Y12 receptor (Homo sapiens, UniProt Q9H244). Kind of data set: [3H]2MeSADP radioligand binding at the P2Y12 receptor (U2OS membranes). Also noted: expressed in transfected cells; host or cells: U2OS cells (membrane preparation). The procedure: The eleven selected components were further examined in radioligand binding and functional assays. We initially tested the eleven compounds by measuring the inhibition of [^3H]2-methylthioadenosine 5′-diphosphate (2MeSADP) binding at the human P2Y12 receptor (Fig. 1b).
(§1) U2Os cells expressing the P2Y1 or P2Y12 receptors were cultured in DMEM supplemented with 10% fetal bovine serum, 100 Units/ml penicillin, 100 µg/ml streptomycin and 2 µmol/ml glutamine. After reaching confluence, cells were detached from plates by scraping into PBS and centrifuged at 250 g for 5 min. The resulting pellets were re-suspended in ice-cold Tris-HCl buffer (50 mM, pH 7.4) and homogenized. After homogenization and suspension, cells were centrifuged at 1000 g for 10 min and the pellet was discarded. The suspension was re-centrifuged at 20,000 g for 60 min at 4 °C. The pellets were re-suspended, split into aliquots and stored at −80 °C. The protein concentration was measured using the Bradford assay. For P2Y1 and P2Y12 receptor binding assays, saturation curves were measured by addition of various concentrations of 50 µl [^3H]2MeSADP (specific activity, 7.5 Ci/mmol; Movarek Biochemicals, Brea, CA) and 100 μl of membrane suspension to a total of 200 μl of total assay volume. Non-specific binding was determined using 10 µM MRS2500 (Tocris; St. Louis, MO) for the P2Y1 receptor and 10 μM SAR216471 (Tocris; St. Louis, MO) for the P2Y12 receptor. For the displacement assay, various concentrations of inhibitors were incubated with [^3H]2MeSADP (1.0 nM for P2Y1; 0.4 nM for P2Y12) and membrane preparations (20 µg/sample) at 25 °C for 60 min. The separation of bound from free radioligand was accomplished by rapid vacuum filtration of the incubation mixture over GF/B filter using a Brandel cell harvester (Brandel Inc., Gaithersburg, MD). Filters were washed two times with 3 ml of ice-cold Tris-HCl buffer, pH 7.5. Radioactivity on the filters was quantified using a Tri-carb Liquid Scintillation Counter (PerkinElmer Life and Analytical Sciences). 2MeSADP was purchased from Sigma (St. Louis, MO). All other materials were from standard commercial sources and of analytical grade. For radioligand binding, calculation of apparent binding affinities, Ki = IC50/(1 + [radioligand]/Kd), was performed using the nonlinear iterative curve-fitting program of Prism (GraphPad Software Inc., San Diego, CA).

Data set [2] addresses T1, P2Y12 receptor. Kind of data set: Antagonism of 2MeSADP-induced inhibition of forskolin-stimulated cAMP accumulation, Schild analysis. It is filed as cell-based. On the set-up: expressed in transfected cells; host or cells: U2OS cells. The method, then:
The functional antagonism of these three salvianolic acids against the P2Y12 receptor was measured by their effect on agonist-induced inhibition of forskolin-stimulated cyclic AMP accumulation in P2Y12 receptor-expressing U2OS cells. For example, in a concentration-dependent manner, SAA shifted the agonist response curve to the right without affecting its maximum agonist effect (Fig. 2b). This observation is consistent with competitive antagonism, but allosteric antagonism cannot be excluded. Schild analysis of the antagonism yielded KB values of 24.2 ± 5.9, 33.6 ± 6.4 and 23.7 ± 4.5 µM for SAA, SAB and SAC, respectively (Fig. 2c).
U2Os cells expressing the P2Y12 receptor were cultured in DMEM medium containing 10% fetal bovine serum, 100 units/ml penicillin, 100 µg/ml streptomycin and 2 µmol/ml glutamine. For the assay of cAMP accumulation, cells were plated in 96-well plates in 100 µl medium overnight. Cells were then treated with assay buffer containing rolipram ([…]) and antagonists for 20 min followed by the addition of agonists and incubate for 10 min. After 10 min incubation with agonist, Forskolin (10 μM) was added to the mixture and the incubation was continued for another 10 min. The reaction was terminated upon removal of the supernatant and addition of 100 µl Tween-20 (0.3%). Intracellular cAMP levels were measured with an ALPHAScreen cAMP assay kit as instructed by the manufacturer (PerkinElmer). Binding and functional parameters were calculated using Prism 7.0 software (GraphPAD, San Diego, CA, USA). Data were expressed as mean ± sem.
For orientation: cAMP levels reflect the balance of adenylyl cyclase and phosphodiesterase activity.

Data set [3] has as its target T2, P2Y1 receptor (Homo sapiens, UniProt P47900). Kind of data set: Antagonism of 2MeSADP-induced IP-1 accumulation, Schild analysis. It is filed as cell-based. Also noted: expressed in transfected cells; host or cells: U2OS cells. The procedure:
(§2) Both P2Y1 and P2Y12 receptors play important roles in platelet aggregation. Therefore, we also tested the potential effects of SAA, SAB and SAC on the P2Y1 receptor. […] SAA and SAC antagonized 2MeSADP-induced accumulation of inositol 1-phosphate (IP-1) (Fig. 2e). KB values calculated by Schild analysis for the P2Y1 receptor were 9.1 ± 1.5 and 15.6 ± 2.0 µM for SAA and SAC, respectively (Fig. 2f). Thus, the Schild analysis of the antagonist potencies of SAA and SAC for Gq-coupled P2Y1 and Gi-coupled P2Y12 receptors was consistent with their binding affinities measured in the radioligand assays.
Inositol 1-phosphate (IP-1) was measured using the IP-One Tb HTRF kit (Cisbio Bioassays, Bedford, MA) as described previously[60],[61]. Briefly, after overnight growth, U2Os cells expressing the P2Y1 receptor were first treated with an antagonist for 20 min before the treatment with agonist and incubated for another 60 min. IP-1 detection reagents were added as instructed by the manual from the manufacturer. The assay plates were read on a Mithras LB940 reader (Berthold Technologies, Oak Ridge, TN) using a time-resolved fluorescence ratio (665/620 nm).

For data set [4], the target named is T2, P2Y1 receptor. Kind of data set: [3H]2MeSADP radioligand binding at the P2Y1 receptor (U2OS membranes). Also noted: expressed in transfected cells; host or cells: U2OS cells (membrane preparation). The note with it: for IC50: average; for inhibitory effect on [3H]2MeSADP binding to the P2Y1 receptor (initial binding results): in words. The method, then:
as §2, §1
Figure S2. The effects of Tween -20 on the inhibition by SAA (a) and SAC (b) of
[3H]2MeSADP binding to the human P2Y1 recept or. Data are ex pressed Me an ± SD from
2- 3 independent experiments. The average IC50 values of SAA in the absence and
presence of 0.01% Tween- 20 are 21.2 and 19.3 μM, respectivel y. The IC50 values of
SAC in the absence and p resence of 0.01% Tween- 20 are 29.4 and 23.7 μM, respectivel y.
The c ritical micelle concentration (CMC) of Tween -20 is 0.0074%.
(§3) (1 picture or pasted object on this page, not shown here)

On the set-up of data set [5]: method as in PMID 21569331. The note with it: rat plasma, cited from earlier work.
The target of the next data set is T3, α1B adrenergic receptor (Homo sapiens, UniProt P35368).
T3 construct: Psychoactive Drug Screening Program (PDSP)
T3 sequence (P35368 1-520): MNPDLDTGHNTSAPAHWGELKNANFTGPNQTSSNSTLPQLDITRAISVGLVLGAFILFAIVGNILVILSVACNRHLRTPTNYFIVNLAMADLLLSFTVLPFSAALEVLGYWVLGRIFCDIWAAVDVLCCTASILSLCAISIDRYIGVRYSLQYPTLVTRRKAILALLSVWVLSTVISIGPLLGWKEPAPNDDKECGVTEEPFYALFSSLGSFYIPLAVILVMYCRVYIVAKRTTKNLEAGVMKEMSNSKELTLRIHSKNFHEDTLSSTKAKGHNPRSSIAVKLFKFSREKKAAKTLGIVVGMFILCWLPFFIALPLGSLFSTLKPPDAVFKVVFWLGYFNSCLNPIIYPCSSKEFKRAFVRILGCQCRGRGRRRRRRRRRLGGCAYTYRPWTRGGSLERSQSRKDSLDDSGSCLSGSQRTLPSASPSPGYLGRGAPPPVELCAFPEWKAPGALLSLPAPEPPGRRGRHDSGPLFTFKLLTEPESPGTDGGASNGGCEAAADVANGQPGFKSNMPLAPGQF
Description: [3H]Prazosin binding assay (PDSP).
From the text: We also tested if SAA, SAB and SAC are promiscuously binding compounds, due to the fact that they all have multiple phenolic groups and are thus potentially PAINS[36]. To find other possible targets of the three compounds, we evaluated their potential binding to 45 diverse receptors, transporters and ion channels (human, unless noted) using radioligand binding assays via the Psychoactive Drug Screening Program (PDSP) (Table S1)[37].
Figure S3. Binding activit y of SAB (compound 44297) to the α1B adrenergic receptor was measured b y [ 3H]Prazosin binding assays for three repeats (a-c). Prazosin is an inverse agonist of the α1B adrenergic receptor. Th e av erage Ki o f SAB was determined […]
as §3

The target of another data set is T4, adrenergic α1B receptor (Homo sapiens, UniProt P35368).
T4 construct: expressed in transfected cells
T4 sequence (P35368 1-520): T3 sequence (P35368 1-520)
Kind of data set: FLIPR agonist and antagonist assays. It is filed as cell-based. The method, then: For agonist assay: cell line expressing target receptor was seeded in a 384-well black-wall, clear-bottom plate about 18 hours prior to the day of experiment and maintained at 37 °C/5% CO2. Then, 20 μl of dye-loading solution was added into the wells and the plates were subsequently placed into a 37 °C incubator for 60 min, followed by a 15 min incubation at room temperature. At last, 10 μl of compounds or control agonist were added into respective wells of the assay plate during reading in FLIPR.
For antagonist assay: cell line expressing target receptor was seeded in a 384-well black-wall, clear-bottom plate about 18 hours prior to the day of experiment and maintained at 37 °C/5% CO2. Then the dye-loading solution and 10 μl of control antagonist and test samples were added into respectively wells in sequence. The plates were subsequently placed into a 37 °C incubator for 60 min, followed by a 15 min incubation at room temperature. At last, 12.5 μl of control agonist were added into respective wells of the assay plate during reading in FLIPR.
The fun ctional activit y of SAB on the adrener gi c α1B re ceptor we re tested b y […]

This is an account of results in PMC5967328, “Salvianolic acids from antithrombotic Traditional Chinese Medicine Danshen are antagonists of human P2Y1 and P2Y12 receptors” (Scientific Reports, 2018).

One may read the Kb as the equilibrium dissociation constant of an antagonist, usually derived from a functional assay. In general, Ki refers to the dissociation constant of the complex between target and ligand, obtained from inhibition or displacement. As usually defined, the IC50 is the concentration that inhibits the measured activity by half. Usually inhibition stands for the relative decrease from the control value, in per cent.

“Also recorded” adds a separate entry of the source. Read-outs that look alike come from different tables or passages of the source.

T2 sequence (P47900 whole entry): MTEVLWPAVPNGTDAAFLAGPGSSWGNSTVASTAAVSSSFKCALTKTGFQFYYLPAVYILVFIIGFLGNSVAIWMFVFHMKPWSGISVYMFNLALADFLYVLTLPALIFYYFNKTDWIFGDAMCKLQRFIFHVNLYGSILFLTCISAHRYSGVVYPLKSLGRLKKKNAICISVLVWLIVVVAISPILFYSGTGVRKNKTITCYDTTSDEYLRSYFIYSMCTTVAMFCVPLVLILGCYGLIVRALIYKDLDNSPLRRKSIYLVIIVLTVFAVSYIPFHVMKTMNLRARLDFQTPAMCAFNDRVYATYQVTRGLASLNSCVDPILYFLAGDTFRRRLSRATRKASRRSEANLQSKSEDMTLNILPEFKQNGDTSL
T1 sequence (Q9H244 whole entry): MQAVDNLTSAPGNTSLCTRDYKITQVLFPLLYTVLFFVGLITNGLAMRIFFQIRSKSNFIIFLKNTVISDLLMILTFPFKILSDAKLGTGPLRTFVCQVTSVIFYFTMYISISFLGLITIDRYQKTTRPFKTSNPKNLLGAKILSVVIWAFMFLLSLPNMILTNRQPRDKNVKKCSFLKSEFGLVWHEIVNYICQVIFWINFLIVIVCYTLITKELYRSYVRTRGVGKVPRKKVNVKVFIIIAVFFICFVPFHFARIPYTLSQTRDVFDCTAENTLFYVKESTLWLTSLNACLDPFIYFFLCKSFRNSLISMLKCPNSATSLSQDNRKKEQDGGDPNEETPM

On to `O=C(O)Cc1c(/C=C/C(=O)O[C@H](Cc2ccc(O)c(O)c2)C(=O)O)ccc(O)c1O` [salvianolic acid D], for which the “inhibition of [3H]2MeSADP binding at the human P2Y12 receptor” value (“inhibition of [3H]2MeSADP binding” for short) on P2Y12 receptor [1] (100 µM compound) turned out to be 33.5 ± 8.6%.

On to `O=C(/C=C/c1ccc(O)c2oc(-c3ccc(O)c(O)c3)cc12)O[C@H](Cc1ccc(O)c(O)c1)C(=O)O` [SAC, salvianolic acid C], for which the antagonist dissociation constant (Kb) came to 23.7 ± 4.5 µM on P2Y12 receptor [2] and 15.6 ± 2 µM at P2Y1 receptor [3] (U2OS cells expressing P2Y1, IP-1 accumulation, read-out: KB (Schild analysis), P2Y1 receptor). Further, the “inhibition of [3H]2MeSADP binding” value on P2Y12 receptor [1] (100 µM compound) is listed as “significant inhibitory effect”. Further, the inhibitory constant (Ki) amounted to 15.6 ± 6.5 µM on P2Y12 receptor [1] (full inhibition curves vs [3H]2MeSADP (0.4 nM), read-out: Ki, P2Y12 receptor binding) and 23.3 ± 4.5 µM on P2Y1 receptor [4] (vs [3H]2MeSADP (1.0 nM), read-out: Ki, P2Y1 receptor binding). For the same molecule, the IC50 on P2Y1 receptor [4] (absence of Tween-20, read-out: IC50, inhibition of [3H]2MeSADP binding to human P2Y1 receptor) was 29.4 µM; on P2Y1 receptor [4] (presence of 0.01% Tween-20, read-out: IC50, inhibition of [3H]2MeSADP binding to human P2Y1 receptor), 23.7 µM. The “inhibitory effect on [3H]2MeSADP binding to the P2Y1 receptor (initial binding results)” value (“inhibitory effect on [3H]2MeSADP binding” for short) on P2Y1 receptor [4] is “substantial inhibitory effect”.

As for `O=C(/C=C/c1ccc(O)c(O)c1/C=C/c1ccc(O)c(O)c1)O[C@H](Cc1ccc(O)c(O)c1)C(=O)O` [SAA, salvianolic acid A], the t1/2 in data set [5] (100 mg/kg, p.o.) was 3.28 h. Moreover, the Kb came out at 24.2 ± 5.9 µM at P2Y12 receptor [2] and 9.1 ± 1.5 µM at P2Y1 receptor [3]. Moreover, the inhibitory constant (Ki) at P2Y12 receptor [1] came to 20.3 ± 1.5 µM; on P2Y1 receptor [4], 14.7 ± 2.4 µM. Further, the “inhibition of [3H]2MeSADP binding” value at P2Y12 receptor [1] (100 µM compound) is “significant inhibitory effect”. In addition, the IC50 on P2Y1 receptor [4] (IC50, inhibition of [3H]2MeSADP binding to human P2Y1 receptor, absence of Tween-20) was 21.2 µM; on P2Y1 receptor [4] (IC50, inhibition of [3H]2MeSADP binding to human P2Y1 receptor, presence of 0.01% Tween-20), 19.3 µM. In addition, the “inhibitory effect on [3H]2MeSADP binding” value on P2Y1 receptor [4] is “substantial inhibitory effect”.

At P2Y12 receptor [1] (100 µM compound), `O=C(/C=C/c1ccc(O)c(O)c1)O[C@H](Cc1ccc(O)c(O)c1)C(=O)O` [rosmarinic acid] gave an inhibition at 100 µM of 31.6 ± 6.2%.

As to `O=C(C=Cc1ccc(O)c2c1C(C(=O)OC(Cc1ccc(O)c(O)c1)C(=O)O)C(c1ccc(O)c(O)c1)O2)OC(Cc1ccc(O)c(O)c1)C(=O)O` (stereo not shown) [SAB, salvianolic acid B], the Ki at α1B adrenergic receptor came to 6.26 ± 1.46 µM; on P2Y12 receptor [1], 36.4 ± 20.3 µM. Moreover, the “agonist activity on α1B” value on adrenergic α1B receptor (FLIPR agonist assay) was “did not show agonist activity; also recorded: neither agonist nor antagonist”. The “antagonist activity on α1B” value at adrenergic α1B receptor (FLIPR antagonist assay) is reported as “did not show antagonist activit y; also recorded: neither agonist nor antagonist”. In addition, the t1/2 entry in data set [5] (100 mg/kg, i.v.) is “about 105 min”; in data set [5] (500 mg/kg, p.o.), 4.13 h. In addition, on P2Y12 receptor [2], the Kb worked out at 33.6 ± 6.4 µM. Moreover, the “inhibition of [3H]2MeSADP binding” value at P2Y12 receptor [1] (100 µM compound) is “significant inhibitory effect”. Also, the “inhibitory effect on [3H]2MeSADP binding” value at P2Y1 receptor [4] is given as “significantly weaker”.
